Reference: EP2493892B1, “QUINUCLIDINE COMPOUNDS AS ALPHA-7 NICOTINIC ACETYLCHOLINE RECEPTOR LIGANDS” (Bristol-Myers Squibb Company, priority 2009, dated 2011)

Target: T1, α-7 nicotinic ACh receptor ion channels expressed in mammalian HEK 293 cells (Rattus norvegicus, UniProt Q05941)
T1 construct: expressed in transfected cells
Test: Ca2+-sensitive, fluorescence-based assay for α-7 nicotinic acetylcholine receptor channel function in mammalian cells (FLIPR)
Format: cell-based
Conditions: agonist activity, Ca2+ flux, read-out: FLIPR α7 activity rating (EC50)
Description: • I) α7 Nicotinic Acetycholine Receptor Binding. Membranes were prepared for binding using HEK293 cells stably expressing the rat α7 nicotinic acetycholine receptor (rat α7 nAChR). Cells were homogenized at 4°C in hypotonic lysis buffer consisting of 10 mM Tris (pH 7.4), 5 mM EDTA and protease inhibitors and centrifuged at 32000 xg for 20 minutes. The pellet was washed once in membrane wash buffer consisting of 50 mM Tris (pH 7.4), 1 mM EDTA and protease inhibitors and centrifuged at 32000 xg for 20 minutes. This pellet was then resuspended in assay buffer consisting 50 mM KH2PO4 (pH 7.4 at 25°C), 1 mM EDTA, 0.005 % Triton-X 100 and 0.1% (v/v) Sigma Protease Inhibitor Cocktail. Aliquots were then frozen in dry ice/ethanol and kept at -80°C until the day of the assay. • II) A Ca^2+ -Sensitive, Fluorescence-Based Assay α-7 for Nicotinic Acetylcholine Receptor Channel Function In Mammalian Cells ("FLIPR"). Summary: Lead compounds are evaluated for agonist activity at α-7, α3β4, α4αβ2, and α1β1δ1ε sub-types of nicotinic ACh receptor ion channels expressed in mammalian HEK 293 cells. Agonist potency and efficacy values are determined from kinetic fluorescence Ca^2+ influx measurements made using a 384 well FLIPR (Fluorescence Image Plate Reader). […] The basal fluorescence from the cells is monitored in real time, followed by the acute addition of test compounds. […]

T1 sequence (Q05941 23-502): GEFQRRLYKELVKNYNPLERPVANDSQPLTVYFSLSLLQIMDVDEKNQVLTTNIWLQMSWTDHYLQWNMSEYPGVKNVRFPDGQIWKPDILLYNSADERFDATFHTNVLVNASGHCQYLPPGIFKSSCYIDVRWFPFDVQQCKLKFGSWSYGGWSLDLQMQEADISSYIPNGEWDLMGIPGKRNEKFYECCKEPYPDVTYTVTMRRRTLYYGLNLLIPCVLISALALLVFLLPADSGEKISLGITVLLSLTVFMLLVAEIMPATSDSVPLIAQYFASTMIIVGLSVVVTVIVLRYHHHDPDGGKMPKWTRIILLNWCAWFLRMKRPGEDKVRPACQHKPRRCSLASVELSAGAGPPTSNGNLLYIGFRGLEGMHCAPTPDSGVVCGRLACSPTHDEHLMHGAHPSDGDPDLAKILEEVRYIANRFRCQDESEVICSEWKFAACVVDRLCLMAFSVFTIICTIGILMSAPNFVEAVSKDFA

SMILES: c1cncc(-c2ccnc(NC3=NC[C@@]4(CN5CCC4CC5)O3)c2)c1 [Example 1, (R)-N-(3,4'-Bipyridin-2'-yl)-4H-1'-azaspiro[oxazole-5,3'-bicyclo[2.2.2]octan]-2-amine]
- EC50: < 100 nM
